From patent US9000162B2, “5,8-difluoro-4-(2-(4-(heteroaryloxy)-phenyl)ethylamino)quinazolines and their use as agrochemicals” (Dow AgroSciences LLC, priority 2008, dated 2015) come the findings set out here.

Common to all, as to format: in vivo
The subject of experiment [1] is Pseudoperonospora cubensis (PSPECU). The experiment in a line: Cucumber downy mildew foliar protectant test. To be noted: 200 ppm foliar, inoculated one day after treatment, read-out: Activity against fungal diseases PSPECU. In outline:
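Cucumber seedlings, first true leaf 20-80% expanded, were sprayed to wetness with formulated compound and inoculated next day with aqueous sporangia suspension. Severity was converted to percent control versus untreated inoculated plants: ***=80-100%, **=50-79%, *=0-49%.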

For experiment [2], the system named is Puccinia recondita tritici (PUCCRT). Description: Leaf rust of wheat foliar protectant test. As to conditions: 200 ppm foliar, inoculated one day after treatment, read-out: Activity against fungal diseases PUCCRT. The gist of the method: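 Wheat seedlings (3–8 per pot) were sprayed to wet with formulated compound and inoculated the next day with an aqueous Puccinia recondita tritici spore suspension. Severity was converted to % control versus untreated inoculated plants and rated *** 80–100%, ** 50–79%, * 0–49%.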

Experiment [3] relates to Magnaporthe grisea = Pyricularia oryzae (PYRIOR). The experiment in a line: whole plant or invertebrate. To be noted: foliar, read-out: Activity against fungal diseases PYRIOR.
Experiment [4] concerns Septoria tritici (SEPTTR). The experiment in a line: Septoria blotch of wheat foliar protectant test. To be noted: Zymoseptoria tritici, read-out: Activity against fungal diseases SEPTTR; for pest or weed control at 200 ppm: 200 ppm foliar, inoculated one day after treatment; for pest or weed control at 25 ppm: foliar, Tested at 25 ppm (footnote b). In outline: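 Wheat seedlings (3-10 per pot) were sprayed to wet with formulated compound and inoculated next day with Septoria tritici spores. Plants then had 1 day in a dark dew chamber and 3 days in a lighted one before greenhouse incubation. Severity versus untreated inoculated plants gave percent control, scored *** 80-100%, ** 50-79%, * 0-49%.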

Consider `Fc1cc(CCNc2ncnc3c(F)cc(F)c(F)c23)ccc1Oc1cc(C(F)(F)F)ccn1` [Compound 67], for which the pest or weed control at 200 ppm in experiment [1], in experiment [2], in experiment [3] and in experiment [4] was 80 to 100% in each case.
Turning to `COc1cc(CCNc2ncnc3c(F)ccc(F)c23)ccc1Oc1c(Cl)cnc(C(Cl)(Cl)Cl)c1Cl` [Compound 89], the pest or weed control at 200 ppm in experiment [1] lay within 50 to 79%; in experiment [2] it was 80 to 100%; in experiment [3], 50 to 79%; in experiment [4], 50 to 79%.
As for `Oc1ccc(CCNc2ncnc3c(F)cc(F)c(F)c23)cc1Cl` [Compound 88], the pest or weed control at 200 ppm in experiment [1] is 80 to 100%; in experiment [2] it was 0 to 49%; in experiment [3], 0 to 49%; in experiment [4], 0 to 49%.
On to `C=Cc1cc(CCNc2ncnc3c(F)ccc(F)c23)ccc1Oc1cc(C(F)(F)F)ccn1` [Compound 65], for which the pest or weed control at 200 ppm in experiment [1], in experiment [2], in experiment [3] and in experiment [4] was 80 to 100% throughout.
Turning to `COc1cc(C)c(CCNc2ncnc3c(F)ccc(F)c23)cc1C` [Compound 17], the pest or weed control at 200 ppm in experiment [1] was 80 to 100%; in experiment [2], 80 to 100%; in experiment [3], 50 to 79%; in experiment [4], 0 to 49%.
Regarding `Fc1ccc(F)c2c(NCCc3ccc(Oc4ccnc(C(F)(F)F)n4)cc3)ncnc12` [Compound 114], the pest or weed control at 200 ppm in experiment [1], in experiment [2] and in experiment [3] was 80 to 100% each time. In addition, the pest or weed control at 25 ppm in experiment [4] is 50 to 79%.
With `Fc1ccc(F)c2c(NCCc3cccc(Oc4cc(C(F)(F)F)ccn4)c3)ncnc12` [Compound 40], the pest or weed control at 200 ppm in experiment [1], in experiment [2] and in experiment [3] was 80 to 100% each time. In addition, the pest or weed control at 25 ppm in experiment [4] was 50 to 79%.
On to `Cc1cc(CCNc2ncnc3c(F)cc(F)c(F)c23)ccc1Oc1cc(C(F)(F)F)cc[n+]1[O-]` [Compound 81], for which the pest or weed control at 200 ppm in experiment [1], in experiment [2], in experiment [3] and in experiment [4] was 80 to 100% in each case.
Turning to `Cc1cc(CCNc2ncnc3c(F)ccc(F)c23)ccc1Oc1ccnc(C(F)(F)F)c1` [Compound 82], the pest or weed control at 200 ppm in experiment [1], in experiment [2], in experiment [3] and in experiment [4] was 80 to 100% throughout.
Regarding `Fc1ccc(F)c2c(NCCc3ccc(Oc4cnccc4C(F)(F)F)c(Cl)c3)ncnc12` [Compound 91], the pest or weed control at 200 ppm in experiment [1], in experiment [2], in experiment [3] and in experiment [4] was 80 to 100% each time.
With `N#Cc1cc(Oc2ccc(CCNc3ncnc4c(F)ccc(F)c34)cc2)ncc1Cl` [Compound 126], the pest or weed control at 200 ppm in experiment [1], in experiment [2] and in experiment [3] was 80 to 100% in each case. In experiment [4], the pest or weed control at 25 ppm was 80 to 100%.
As for `Cc1cc(CCNc2ncnc3c(F)ccc(F)c23)ccc1Oc1c(Cl)cnc(C(F)(F)F)c1Cl` [Compound 79], the pest or weed control at 200 ppm in experiment [1] fell in the range of 50 to 79%; in experiment [2], 80 to 100%; in experiment [3], 80 to 100%; in experiment [4] it was 80 to 100%.
With `COc1cc(CCNc2ncnc3c(F)ccc(F)c23)ccc1Oc1ccnc(C(F)(F)F)n1` [Compound 113], the pest or weed control at 200 ppm in experiment [1], in experiment [2] and in experiment [3] was 80 to 100% throughout. The pest or weed control at 25 ppm in experiment [4] fell in the range of 80 to 100%.
As to `Nc1c(F)c(F)nc(Oc2ccc(CCNc3ncnc4c(F)ccc(F)c34)cc2)c1F` [Compound 97], the pest or weed control at 200 ppm in experiment [1] is 80 to 100%; in experiment [2], 80 to 100%; in experiment [3], 80 to 100%; in experiment [4] it was 50 to 79%.
Turning to `COc1cc(CCNc2ncnc3c(F)ccc(F)c23)ccc1Oc1nc(F)c(F)c(N)c1F` [Compound 98], the pest or weed control at 200 ppm in experiment [1] was 80 to 100%; in experiment [2], 80 to 100%; in experiment [3], 80 to 100%; in experiment [4] it was 0 to 49%.
Turning to `COc1cc(C(C)(F)F)cc(Oc2ccc(CCNc3ncnc4c(F)ccc(F)c34)cc2)n1` [Compound 11], the pest or weed control at 200 ppm in experiment [1] was 80 to 100%; in experiment [2] it was 80 to 100%; in experiment [3], 50 to 79%; in experiment [4], 80 to 100%.
With `Cc1c(CCNc2ncnc3c(F)ccc(F)c23)ccc(Oc2cc(C(F)(F)F)ccn2)c1C` [Compound 26], the pest or weed control at 200 ppm in experiment [1] is 80 to 100%; in experiment [2], 80 to 100%; in experiment [3] it was 50 to 79%; in experiment [4] it was 80 to 100%.
Consider `CCCOc1cc(CCNc2ncnc3c(F)ccc(F)c23)ccc1Oc1cc(C(F)(F)F)ccn1` [Compound 57], for which the pest or weed control at 200 ppm in experiment [1], in experiment [2], in experiment [3] and in experiment [4] was 80 to 100% in each case.
`Fc1ccc(F)c2c(NCCc3ccccc3)ncnc12` [Compound 94]: the pest or weed control at 200 ppm in experiment [1] fell in the range of 80 to 100%; in experiment [2], 80 to 100%; in experiment [3], 0 to 49%; in experiment [4] it was 50 to 79%.
As to `Oc1ccc2c(c1)CC(Nc1ncnc3c(F)ccc(F)c13)C2` (stereo not shown) [Compound 106], the pest or weed control at 200 ppm in experiment [1] fell in the range of 50 to 79%; in experiment [2] it was 50 to 79%; in experiment [3], 50 to 79%; in experiment [4], 0 to 49%.
In the case of `Oc1ccc(CCNc2ncnc3c(F)ccc(F)c23)cc1` [Compound 4], the pest or weed control at 200 ppm in experiment [1] was 50 to 79%; in experiment [2] it was 50 to 79%; in experiment [3] it was 0 to 49%; in experiment [4], 0 to 49%.
In the case of `CC(C)Oc1cc(CCNc2ncnc3c(F)ccc(F)c23)ccc1Oc1cc(C(F)(F)F)ccn1` [Compound 58], the pest or weed control at 200 ppm in experiment [1], in experiment [2], in experiment [3] and in experiment [4] was 80 to 100% each time.
Consider `Cc1cc(CCNc2ncnc3c(F)ccc(F)c23)ccc1Oc1cc(C(C)(F)F)ccn1` [Compound 64], for which the pest or weed control at 200 ppm in experiment [1], in experiment [2], in experiment [3] and in experiment [4] was 80 to 100% throughout.
For `COc1ccc(CCNc2ncnc3c(F)cc(F)c(F)c23)cc1C` [Compound 68], the pest or weed control at 200 ppm in experiment [1] lay in the range of 50 to 79%; in experiment [2], 0 to 49%; in experiment [3], 80 to 100%; in experiment [4], 0 to 49%.
On to `Fc1cc(CCNc2ncnc3c(F)ccc(F)c23)ccc1Oc1cc(C(F)(F)F)ccn1` [Compound 49], for which the pest or weed control at 200 ppm in experiment [1], in experiment [2], in experiment [3] and in experiment [4] was 80 to 100% each time.
